In experiment [1] the test system is blood cancer cell lines (e.g. HL-60, Jurkat, Raji, Ramos, Daudi, MOLT-4). Kind of experiment: Cell based assay, cell viability (CellTiter-Glo), blood cancer cell lines. The note with it: Homo sapiens. An outline of the steps:
(§1)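 Read-out is ATP-dependent luminescence (CellTiter-Glo) taken after 72 h of exposure to compound at final concentrations from 0 to 2 μM. Cells were plated 24 h beforehand.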
(In general: Cellular ATP, detected with luciferase, serves as a proxy for viable cell number.)

The test system of experiment [2] is pancreatic cancer cell lines (e.g. MIA PaCa-2). Kind of experiment: Cell based assay, cell viability (CellTiter-Glo), pancreatic cancer cell lines. The following applies: Homo sapiens. The method in brief:
as §1

The test system of experiment [3] is cervical carcinoma cell lines. As to the kind of experiment: Cell based assay, cell viability (CellTiter-Glo), cervical carcinoma cell lines. The following applies: Homo sapiens; HeLa cells.
For experiment [4], the system named is RT4: human urinary bladder transitional cell papilloma. As to the kind of experiment: Cell based assay, cytotoxicity in RT4 papilloma cells (selectivity). The following applies: Homo sapiens, RT-4; RT4 cells.
The mark [5] stands for this setting: MV4-11, blood cancer cell line MV-4-11, 72 hours, read-out: IC50, MV-4-11.
Setting [6] is: blood cancer cell line Daudi, 72 hours, read-out: IC50, Daudi.
Where [7] appears, read: blood cancer cell line HL-60, 72 hours, read-out: IC50, HL-60.
Where [8] appears, read: blood cancer cell line Jurkat, 72 hours, read-out: IC50, Jurkat.
Where [9] appears, read: blood cancer cell line MOLT-4, 72 hours, read-out: IC50, MOLT-4.
[10] abbreviates: blood cancer cell line Raji, 72 hours, read-out: IC50, Raji.
The mark [11] stands for this setting: blood cancer cell line Ramos (RA 1), 72 hours, read-out: IC50, Ramos (RA 1).
Where [12] appears, read: blood cancer cell line U-937, 72 hours, read-out: IC50, U-937.
[13] abbreviates: pancreatic cancer cell line AsPC-1, 72 hours, read-out: IC50, AsPC-1.
Setting [14] is: pancreatic cancer cell line BxPC-3, 72 hours, read-out: IC50, BxPC-3.
[15] abbreviates: pancreatic cancer cell line CFPAC-1, 72 hours, read-out: IC50, CFPAC-1.
Where [16] appears, read: pancreatic cancer cell line Capan-1, 72 hours, read-out: IC50, Capan-1.
Setting [17] is: pancreatic cancer cell line Capan-2, 72 hours, read-out: IC50, Capan-2.
Setting [18] is: pancreatic cancer cell line MIA PaCa-2, 72 hours, read-out: IC50, MIA PaCa-2.
Setting [19] is: pancreatic cancer cell line PANC-1, 72 hours, read-out: IC50, PANC-1.

Data on 4 molecules can be found in patent publication US11464770B2, “Anticancer pharmaceutical composition” (NATIONAL CANCER CENTER, priority 2016, dated 2022).

Structures are written as SMILES. Where two headings read alike, the source gives them in different places.

For orientation: IC50 means the point on the concentration scale where inhibition reaches its midpoint.

As to `CC(=O)c1c([S+]([O-])Cc2cccnc2)[nH]c2c(Br)ccc(Cl)c2c1=O` (centres unmarked) [Compound 84, 3-acetyl-8-bromo-5-chloro-2-((pyridin-3-ylmethyl)sulfinyl)quinolin-4(1H)-one], the IC50 in experiment [1] (setting [5]) amounted to 0.82 µM; in experiment [1] (setting [6]) it was 1.12 µM; in experiment [1] (setting [7]) it was 1.48 µM; in experiment [1] (setting [8]) it was 0.98 µM; in experiment [1] (setting [9]), 0.97 µM; in experiment [1] (setting [10]), 1.5 µM. Besides, the IC50 was 1 µM in experiment [1] (setting [11]); 1.48 µM in experiment [1] (setting [12]); 1.8 µM in experiment [2] (setting [13]); more than 2 µM in experiment [2] (setting [14]); more than 10 µM in experiment [2] (setting [15]); 1.5 µM in experiment [2] (setting [16]). The IC50 in experiment [2] (setting [17]) is more than 2 µM; in experiment [2] (setting [18]) it was 0.92 µM; in experiment [2] (setting [19]), more than 2 µM; in experiment [3] it was more than 10 µM; in experiment [4], more than 10 µM.

On to `Cc1cc(C[S+]([O-])c2[nH]c3c(Cl)ccc(Cl)c3c(=O)c2C(=O)C(C)C)no1` (centres unmarked) [Compound 86, 5,8-dichloro-3-isobutyryl-2-(((5-methylisoxazol-3-yl)methyl)sulfinyl)quinolin-4(1H)-one], for which the IC50 in experiment [1] (setting [5]) was determined as 0.71 µM; in experiment [1] (setting [6]), 0.65 µM; in experiment [1] (setting [7]), 1.38 µM; in experiment [1] (setting [8]) it was 0.55 µM; in experiment [1] (setting [9]), 1.01 µM; in experiment [1] (setting [10]), 0.82 µM. In addition, the IC50 was 0.46 µM in experiment [1] (setting [11]); 1.23 µM in experiment [1] (setting [12]); 1.28 µM in experiment [2] (setting [13]); more than 2 µM in experiment [2] (setting [14]); more than 10 µM in experiment [2] (setting [15]); 1.26 µM in experiment [2] (setting [16]). In addition, the IC50 is more than 2 µM in experiment [2] (setting [17]); 0.64 µM in experiment [2] (setting [18]); more than 2 µM in experiment [2] (setting [19]); more than 2 µM in experiment [3]; more than 10 µM in experiment [4].

Consider `COC(=O)c1ccc(C[S+]([O-])c2[nH]c3c(Cl)ccc(Cl)c3c(=O)c2C(C)=O)o1` (centres unmarked) [Compound 89, methyl 5-(((3-acetyl-5,8-dichloro-4-oxo-1,4-dihydroquinolin-2-yl)sulfinyl)methyl)furan-2-carboxylate], for which the IC50 is 1.75 µM in experiment [1] (setting [5]); more than 2 µM in experiment [1] (setting [6]); more than 2 µM in experiment [1] (setting [7]); 1.38 µM in experiment [1] (setting [8]); more than 2 µM in experiment [1] (setting [9]); more than 2 µM in experiment [1] (setting [10]). Moreover, the concentration for half-maximal inhibition (IC50) is 1.71 µM in experiment [1] (setting [11]); more than 2 µM in experiment [1] (setting [12]); more than 2 µM in experiment [2] (setting [13]); more than 2 µM in experiment [2] (setting [14]); more than 10 µM in experiment [2] (setting [15]); more than 2 µM in experiment [2] (setting [16]). Further, the IC50 is more than 2 µM in experiment [2] (setting [17]); 1.41 µM in experiment [2] (setting [18]); more than 2 µM in experiment [2] (setting [19]); more than 10 µM in experiment [3]; more than 10 µM in experiment [4].

As for `Cc1cc(C[S+]([O-])c2[nH]c3c(Br)ccc(Cl)c3c(=O)c2C(=O)C(C)C)no1` (centres unmarked) [Compound 95, 8-bromo-5-chloro-3-isobutyryl-2-(((5-methylisoxazol-3-yl)methyl)sulfinyl)quinolin-4(1H)-one], the IC50 amounted to 0.7 µM in experiment [1] (setting [5]); 0.64 µM in experiment [1] (setting [6]); 0.98 µM in experiment [1] (setting [7]); 0.29 µM in experiment [1] (setting [8]); 1.01 µM in experiment [1] (setting [9]); 1 µM in experiment [1] (setting [10]). The half-inhibitory concentration (IC50) in experiment [1] (setting [11]) was 0.52 µM; in experiment [1] (setting [12]) it was 1.06 µM; in experiment [2] (setting [13]) it was 1.06 µM; in experiment [2] (setting [14]) it was more than 2 µM; in experiment [2] (setting [15]), more than 10 µM; in experiment [2] (setting [16]) it was 1.25 µM. For the same molecule, the IC50 was more than 2 µM in experiment [2] (setting [17]); 0.59 µM in experiment [2] (setting [18]); more than 2 µM in experiment [2] (setting [19]); more than 2 µM in experiment [3]; more than 10 µM in experiment [4].
